Measured values: patent publication US9012655B2, “Antimicrobial/adjuvant compounds and methods” (Denouamed, Inc., priority 2011, dated 2015)

What was measured:
Assay type in all cases: cell-based
[1] = system: E. coli D22; assay: MIC, NCCLS M7-A6 broth microdilution, E. coli D22; settings: 16 to 20 h, 35 degrees Celsius
Method in brief: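 Broth microdilution per NCCLS M7-A6 in cation-adjusted Mueller-Hinton broth, doubling dilutions, inoculum 5×10^5 CFU/mL, DMSO controls included. Read after 16–20 h at 35 °C in ambient air; MIC is lowest concentration preventing visible growth.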

[2] = system: Staphylococcus aureus AUR131 007035; assay: MIC panel of challenge pathogens (CLSI); settings: Staphylococcus aureus AUR131 007035
Method in brief: (§1)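 Broth microdilution per CLSI guidelines. Final inoculum 2-8×10^5 CFU/ml, compounds serially two-fold diluted from 128 mg/L top concentration. Incubated in the dark at 30-37° C for 24-48 h, aerobic or anaerobic as appropriate. MIC read visually as 100% inhibition endpoint; MIC50 and MIC80 also reported.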

[3] = system: Enterococcus faecalis ATCC29212; assay: MIC panel of challenge pathogens (CLSI); settings: Enterococcus faecalis ATCC29212
Method in brief: as §1

[4] = system: Staphylococcus aureus AUR59 7005; assay: MIC panel of challenge pathogens (CLSI); settings: Staphylococcus aureus AUR59 7005
Method in brief: as §1

[5] = system: Staphylococcus aureus NRS1 (ATCC700699); assay: MIC panel of challenge pathogens (CLSI); settings: Staphylococcus aureus NRS1 (ATCC700699)
Method in brief: as §1

[6] = system: Staphylococcus aureus NRS384; assay: MIC panel of challenge pathogens (CLSI); settings: Staphylococcus aureus NRS384
Method in brief: as §1

[7] = system: Staphylococcus epidermidis NRS122; assay: MIC panel of challenge pathogens (CLSI); settings: Staphylococcus epidermidis NRS122
Method in brief: as §1

[8] = system: Staphylococcus epidermidis NRS7; assay: MIC panel of challenge pathogens (CLSI); settings: Staphylococcus epidermidis NRS7
Method in brief: as §1

[9] = system: Staphylococcus aureus AUR60 7005; assay: MIC panel of challenge pathogens (CLSI); settings: Staphylococcus aureus AUR60 7005
Method in brief: as §1

[10] = system: Staphylococcus aureus NRS383; assay: MIC panel of challenge pathogens (CLSI); settings: Staphylococcus aureus NRS383
Method in brief: as §1

[11] = system: Staphylococcus aureus NRS2 (ATCC700698); assay: MIC panel of challenge pathogens (CLSI); settings: Staphylococcus aureus NRS2 (ATCC700698)
Method in brief: as §1

[12] = system: Enterococcus faecium ATCC700221; assay: MIC panel of challenge pathogens (CLSI); settings: Enterococcus faecium ATCC700221
Method in brief: as §1

Cc1ccc(-c2cc(-c3nn[nH]n3)cc(-c3ccccc3-c3ccccc3)c2)c2ccccc12 [DNM0474]
0.25 µg/mL: MIC50 (50%) [5]
>125 µM: MIC E coli D22 [1]
16 µg/mL: 100% inhibition [7]
0.5 µg/mL: 100% inhibition [2] | MIC50 (50%) [2] | MIC80 (80%) [2] | 100% inhibition [4] | MIC50 (50%) [4] | MIC80 (80%) [4] | 100% inhibition [5] | MIC80 (80%) [5] | 100% inhibition [6] | MIC50 (50%) [6] | MIC80 (80%) [6] | MIC50 (50%) [8] | 100% inhibition [9] | MIC50 (50%) [9] | MIC80 (80%) [9] | 100% inhibition [10] | MIC50 (50%) [10] | MIC80 (80%) [10] | 100% inhibition [11] | MIC50 (50%) [11] | MIC80 (80%) [11]
8 µg/mL: MIC80 (80%) [7]
1 µg/mL: 100% inhibition [3] | MIC50 (50%) [3] | MIC80 (80%) [3] | 100% inhibition [8] | MIC80 (80%) [8] | 100% inhibition [12] | MIC50 (50%) [12] | MIC80 (80%) [12]
4 µg/mL: MIC50 (50%) [7]
